Paper PMC12816392, “Salmonella relies on siderophore exploitation at low pH” (microLife, 2026)
pKd: −log10 of the molar value.

Biological target: FoxA (Salmonella enterica, UniProt E1W8M5)
Test: […]-DFOE radioligand binding to whole Salmonella cells expressing FoxA, at […]-4 °C with CCCP, filtration and scintillation counting; pH […] and […]
Format: cell-based

FoxA, sequence (E1W8M5 31-702): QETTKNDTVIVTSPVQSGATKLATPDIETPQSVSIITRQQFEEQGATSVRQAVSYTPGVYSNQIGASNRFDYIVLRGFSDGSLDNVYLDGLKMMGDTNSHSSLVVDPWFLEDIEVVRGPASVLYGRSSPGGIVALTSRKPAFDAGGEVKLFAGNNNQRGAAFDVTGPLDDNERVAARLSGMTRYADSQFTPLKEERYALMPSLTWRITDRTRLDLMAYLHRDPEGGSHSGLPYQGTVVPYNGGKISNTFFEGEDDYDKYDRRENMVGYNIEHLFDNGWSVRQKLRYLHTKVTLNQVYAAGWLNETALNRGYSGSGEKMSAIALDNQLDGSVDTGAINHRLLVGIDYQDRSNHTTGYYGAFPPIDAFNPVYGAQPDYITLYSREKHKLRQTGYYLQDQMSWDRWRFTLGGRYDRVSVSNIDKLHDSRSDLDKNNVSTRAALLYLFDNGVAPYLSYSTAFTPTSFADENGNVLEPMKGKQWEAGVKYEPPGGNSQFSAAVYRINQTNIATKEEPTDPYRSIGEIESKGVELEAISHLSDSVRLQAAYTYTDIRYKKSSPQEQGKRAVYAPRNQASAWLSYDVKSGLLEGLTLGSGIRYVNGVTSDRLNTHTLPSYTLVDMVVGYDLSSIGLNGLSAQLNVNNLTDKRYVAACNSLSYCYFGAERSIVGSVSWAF

## O=C1CCC(=O)N(O)CCCCCNC(=O)CCC(=O)N(O)CCCCCNC(=O)CCC(=O)N(O)CCCCCN1 [DFOE, ferrioxamine E]
  pKd: ~8.49
